Reference: ChEMBL document CHEMBL4665776, “Design, synthesis and SAR study of novel C2-pyrazolopyrimidine amides and amide isosteres as allosteric integrase inhibitors” (Bioorg Med Chem Lett, 2020)

Experiments:
[1] = test system: Human immunodeficiency virus 1; assay: Antiviral activity against wild type HIV-1 NL4-3 in human MT2 cells assessed as inhibition of viral out growth replication in presence of 40 mg/ml human serum albumin by HIV1 infectivity assay; format: functional, organism-based; conditions: Human immunodeficiency virus 1, NL4-3, MT2
[2] = Cytotoxicity against human MT2 cells; format: cell-based
[3] = Displacement of [3H]2-tert-butoxy-2-(2-methyl-4-p-tolylquinolin-3-yl)acetic acid from LEDGF binding site of HIV1 integrase; parameters: species or system Human immunodeficiency virus 1
[4] = test system: Human immunodeficiency virus 1; assay: Antiviral activity against wild type HIV-1 NL4-3 in human MT2 cells assessed as inhibition of viral out growth replication by HIV1 infectivity assay; format: functional, organism-based; conditions: Human immunodeficiency virus 1, NL4-3, MT2
[5] = Metabolic stability in rat liver microsomes assessed as parent compound remaining at 0.5 uM incubated for 10 mins; format: ADME, Microsome; conditions: read-out: Stabilty
[6] = Volume of distribution at steady state in Sprague-Dawley rat at 1 mg/kg, iv; format: ADME, organism-based; conditions: in vivo, read-out: Vdss
[7] = Clearance in Sprague-Dawley rat at 1 mg/kg, iv; format: ADME, organism-based; conditions: in vivo
[8] = Half life in Sprague-Dawley rat at 1 mg/kg, iv; format: ADME, organism-based; conditions: in vivo
[9] = Cmax in Sprague-Dawley rat at 1 mg/kg, iv; format: ADME, organism-based; parameters: route intravenous, dose 1 mg/kg; conditions: in vivo
[10] = test system: Human immunodeficiency virus 1; assay: Antiviral activity against HIV-1 NL4-3 harboring integrase A128T mutant in human MT2 cells assessed as inhibition of viral out growth replication by HIV1 infectivity assay; format: functional, organism-based; conditions: Human immunodeficiency virus 1, NL4-3, MT2

Cc1nc2cc(C(=O)NCC3CCOCC3)nn2c(-c2cc(F)c3c(c2C)CCCO3)c1[C@H](OC(C)(C)C)C(=O)O
EC50 [1]: 2660 nM
CC50 [2]: > 40000 nM
IC50 [3]: 420 nM
EC50 [4]: 608 nM

Cc1nc2cc(C(=O)NCc3ccc(F)cc3N3CCCC3=O)nn2c(-c2cc(F)c3c(c2C)CCCO3)c1[C@H](OC(C)(C)C)C(=O)O
EC50 [1]: 9470 nM
CC50 [2]: > 40000 nM
IC50 [3]: 65 nM
EC50 [4]: 2600 nM

CNC(=O)c1cc(F)ccc1CNC(=O)c1cc2nc(C)c([C@H](OC(C)(C)C)C(=O)O)c(-c3cc(F)c4c(c3C)CCCO4)n2n1
EC50 [1]: > 20000 nM
CC50 [2]: > 40000 nM
IC50 [3]: 42 nM
EC50 [4]: 3200 nM

Cc1nc2cc(C(=O)NCC3CCCCC3)nn2c(-c2cc(F)c3c(c2C)CCCO3)c1[C@H](OC(C)(C)C)C(=O)O
EC50 [1]: 342 nM
CC50 [2]: > 40000 nM
EC50 [4]: 12 nM

Cc1nc2cc(C(=O)NCCN3CCOCC3)nn2c(-c2cc(F)c3c(c2C)CCCO3)c1[C@H](OC(C)(C)C)C(=O)O
EC50 [1]: 11700 nM
CC50 [2]: > 40000 nM
IC50 [3]: 815 nM
EC50 [4]: 5920 nM

Cc1nc2cc(C(=O)NCc3ccc(F)c(C4CC4)c3)nn2c(-c2cc(F)c3c(c2C)CCCO3)c1[C@H](OC(C)(C)C)C(=O)O
EC50 [1]: 361 nM
CC50 [2]: > 40000 nM
IC50 [3]: 65 nM
EC50 [4]: 14 nM

Cc1nc2cc(C(=O)NCc3ccc(F)cc3O)nn2c(-c2cc(F)c3c(c2C)CCCO3)c1[C@H](OC(C)(C)C)C(=O)O
EC50 [1]: 1520 nM
CC50 [2]: > 40000 nM
IC50 [3]: 67 nM
EC50 [4]: 37 nM

Cc1nc2cc(C(=O)NCCC(C)C)nn2c(-c2cc(F)c3c(c2C)CCCO3)c1[C@H](OC(C)(C)C)C(=O)O
EC50 [1]: 122 nM
CC50 [2]: > 40000 nM
IC50 [3]: 120 nM
EC50 [4]: 18 nM

Cc1nc2cc(C(=O)NCCC(C)(C)C)nn2c(-c2cc(F)c3c(c2C)CCCO3)c1[C@H](OC(C)(C)C)C(=O)O
remaining at 10 min, 0.5 µM [5]: 86%
Vd [6]: 0.6 L/kg
clearance [7]: 47 mL/min/kg
half-life [8]: 42 min
Cmax [9]: 79 nM
EC50 [1]: 105 nM
CC50 [2]: > 40000 nM
EC50 [10]: 75 nM
IC50 [3]: 84 nM
EC50 [4]: 13 nM

Cc1nc2cc(-c3nc(Cc4ccc(F)cc4)no3)nn2c(-c2cc(F)c3c(c2C)CCCO3)c1[C@H](OC(C)(C)C)C(=O)O
EC50 [1]: 2530 nM
CC50 [2]: > 20000 nM
IC50 [3]: 117 nM
EC50 [4]: 28 nM

Cc1nc2cc(C(=O)NCCC3CCCCC3)nn2c(-c2cc(F)c3c(c2C)CCCO3)c1[C@H](OC(C)(C)C)C(=O)O
EC50 [1]: 143 nM
CC50 [2]: > 40000 nM
IC50 [3]: 63 nM
EC50 [4]: 60 nM

Cc1nc2cc(C(=O)NCc3ccc(F)cc3S(C)(=O)=O)nn2c(-c2cc(F)c3c(c2C)CCCO3)c1[C@H](OC(C)(C)C)C(=O)O
EC50 [1]: 6570 nM
CC50 [2]: > 40000 nM
IC50 [3]: 69 nM
EC50 [4]: 118 nM

COc1cc(F)ccc1CNC(=O)c1cc2nc(C)c([C@H](OC(C)(C)C)C(=O)O)c(-c3cc(F)c4c(c3C)CCCO4)n2n1
EC50 [1]: 347 nM
CC50 [2]: > 40000 nM
IC50 [3]: 21 nM
EC50 [4]: 53 nM

Cc1nc2cc(C(=O)NCc3ccc(F)cc3-n3cncn3)nn2c(-c2cc(F)c3c(c2C)CCCO3)c1[C@H](OC(C)(C)C)C(=O)O
EC50 [1]: 2600 nM
CC50 [2]: > 40000 nM
IC50 [3]: 21 nM
EC50 [4]: 508 nM

Cc1nc2cc(C(=O)NCc3ccc(F)cc3)nn2c(-c2cc(F)c3c(c2C)CCCO3)c1[C@H](OC(C)(C)C)C(=O)O
EC50 [1]: 591 nM
CC50 [2]: > 40000 nM
IC50 [3]: 44 nM
EC50 [4]: 50 nM

Cc1nc2cc(-c3ncc(Cc4ccc(F)cc4)s3)nn2c(-c2cc(F)c3c(c2C)CCCO3)c1[C@H](OC(C)(C)C)C(=O)O
remaining at 10 min, 0.5 µM [5]: 100%
Vd [6]: 3.3 L/kg
clearance [7]: 53 mL/min/kg
half-life [8]: 90 min
Cmax [9]: 343 nM
EC50 [1]: 34 nM
CC50 [2]: > 20000 nM
EC50 [10]: 59 nM
IC50 [3]: 15 nM
EC50 [4]: 1 nM

CCCNC(=O)c1cc2nc(C)c([C@H](OC(C)(C)C)C(=O)O)c(-c3cc(F)c4c(c3C)CCCO4)n2n1
EC50 [1]: 2340 nM
CC50 [2]: > 40000 nM
IC50 [3]: 1120 nM
EC50 [4]: 262 nM

CCCc1cc(CNC(=O)c2cc3nc(C)c([C@H](OC(C)(C)C)C(=O)O)c(-c4cc(F)c5c(c4C)CCCO5)n3n2)ccc1F
EC50 [1]: 247 nM
CC50 [2]: > 20000 nM
IC50 [3]: 108 nM
EC50 [4]: 12 nM

COc1cc(CNC(=O)c2cc3nc(C)c([C@H](OC(C)(C)C)C(=O)O)c(-c4cc(F)c5c(c4C)CCCO5)n3n2)ccc1F
EC50 [1]: 340 nM
CC50 [2]: > 20000 nM
EC50 [4]: 20 nM

CCc1cc(CNC(=O)c2cc3nc(C)c([C@H](OC(C)(C)C)C(=O)O)c(-c4cc(F)c5c(c4C)CCCO5)n3n2)ccc1F
EC50 [1]: 325 nM
CC50 [2]: > 40000 nM
IC50 [3]: 48 nM
EC50 [4]: 15 nM

Cc1nc2cc(C(=O)NCCC3CCOCC3)nn2c(-c2cc(F)c3c(c2C)CCCO3)c1[C@H](OC(C)(C)C)C(=O)O
EC50 [1]: 1770 nM
CC50 [2]: > 40000 nM
IC50 [3]: 95 nM
EC50 [4]: 173 nM

Cc1cc(CNC(=O)c2cc3nc(C)c([C@H](OC(C)(C)C)C(=O)O)c(-c4cc(F)c5c(c4C)CCCO5)n3n2)ccc1F
remaining at 10 min, 0.5 µM [5]: 96%
Vd [6]: 0.6 L/kg
clearance [7]: 58 mL/min/kg
half-life [8]: 24 min
Cmax [9]: 7 nM
EC50 [1]: 236 nM
CC50 [2]: > 40000 nM
EC50 [10]: 35 nM
IC50 [3]: 42 nM
EC50 [4]: 15 nM

Cc1nc2cc(-c3ncc(-c4ccc(F)cc4)s3)nn2c(-c2cc(F)c3c(c2C)CCCO3)c1[C@H](OC(C)(C)C)C(=O)O
EC50 [1]: 296 nM
CC50 [2]: > 20000 nM
IC50 [3]: 195 nM
EC50 [4]: 10 nM

Cc1nc2cc(-c3ncc(Cc4ccc(F)cc4)o3)nn2c(-c2cc(F)c3c(c2C)CCCO3)c1[C@H](OC(C)(C)C)C(=O)O
EC50 [1]: 324 nM
CC50 [2]: > 20000 nM
EC50 [10]: 56 nM
IC50 [3]: 21 nM
EC50 [4]: 6 nM
